Test results as given in patent publication US20260200920A1, “SUBSTITUTED AMINOPYRIDINE COMPOUNDS FOR USE AS AKT1 INHIBITORS” (Atavistik Bio, Inc., priority 2023, published 2026).

Legend:
[1] = target: T1, human recombinant kinase full-length AKT1 E17K (Homo sapiens, UniProt P31749, E17K); assay: AKT1 E17K kinase assay (TR-FRET, Lance); format: biochemical; settings: 0.6 nM AKT1 E17K, 50 nM Ulight-CREBtide, either 50 μM ATP or 2 mM ATP, 60 min at RT
T1 construct: Purified human recombinant kinase full-length AKT1 E17K was expressed in insect cells; made in house; host or cells: insect cells
Procedure, shortened: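 Full-length AKT1 E17K from insect cells, PDPK1-activated, at 0.6 nM with 50 nM Ulight-CREBtide and 50 μM or 2 mM ATP, pH 7.5, 1% DMSO. Enzyme and compound preincubated 15 min, reaction run 60 min at RT; Eu-anti-phospho-CREB (Ser133) TR-FRET 665/620 ratio, 10-point curve, IC50 by 4-parameter fit.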

[2] = target: T2, human recombinant kinase full-length wildtype AKT1 (Homo sapiens, UniProt P31749); assay: AKT1 kinase assay (wildtype, TR-FRET, Lance); format: biochemical; settings: 0.6 nM wildtype AKT1, 50 nM Ulight-CREBtide, either 50 μM ATP or 2 mM ATP, 60 min at RT
T2 construct: Purified human recombinant kinase full-length wildtype AKT1 was expressed in insect cells; made in house; host or cells: insect cells
Procedure, shortened: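 Insect-cell-expressed full-length human AKT1, PDPK1-activated (0.6 nM), preincubated with compound 15 min at RT, then reacted 60 min at RT with 50 nM ULight-CREBtide and 50 μM or 2 mM ATP (pH 7.5, 1% DMSO). Phospho-CREBtide read by Eu-anti-phospho-Ser133 TR-FRET (665/620 ratio); IC50 from 10-point 4-parameter fit.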

T2 sequence (P31749 whole entry): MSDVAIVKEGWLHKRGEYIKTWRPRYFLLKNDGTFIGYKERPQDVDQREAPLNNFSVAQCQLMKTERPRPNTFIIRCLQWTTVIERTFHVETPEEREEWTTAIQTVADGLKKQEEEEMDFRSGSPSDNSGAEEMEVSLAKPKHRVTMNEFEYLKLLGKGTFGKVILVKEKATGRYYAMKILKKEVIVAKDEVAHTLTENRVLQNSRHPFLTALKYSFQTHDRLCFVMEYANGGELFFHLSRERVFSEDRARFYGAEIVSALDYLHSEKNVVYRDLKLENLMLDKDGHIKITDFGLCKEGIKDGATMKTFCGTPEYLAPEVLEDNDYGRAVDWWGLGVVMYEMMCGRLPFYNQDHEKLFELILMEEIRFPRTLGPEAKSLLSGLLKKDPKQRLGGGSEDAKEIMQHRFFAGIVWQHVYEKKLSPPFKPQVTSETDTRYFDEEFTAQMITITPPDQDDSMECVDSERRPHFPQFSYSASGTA
T1 sequence (P31749 whole entry E17K): as the sequence (P31749 whole entry) above, with E17K counted along it

CC(C)(C)c1ccc2nc(-c3cccnc3N)n(-c3ccc(NC(=O)[C@H]4CC[C@H](C(=O)O)CC4)nc3)c2c1 [Compound I-117, (1r,4r)-4-((5-(2-(2-aminopyridin-3-yl)-6-(tert-butyl)-1H-benzo[d]imidazol-1-yl)pyridin-2-yl)carbamoyl)cyclohexane-1-carboxylic acid]
IC50 [1]: ≥ 2 µM | IC50 [2]: < 20 µM

Cc1nc(NC(=O)[C@H]2CC[C@H](C(=O)O)CC2)ccc1-n1c(-c2cccnc2N)nc2ccc(-c3ccccc3)nc21 [Compound I-118, (1r,4r)-4-((5-(2-(2-aminopyridin-3-yl)-5-phenyl-3H-imidazo[4,5-b]pyridin-3-yl)-6-methylpyridin-2-yl)carbamoyl)cyclohexane-1-carboxylic acid]
IC50 [1]: < 0.5 µM | IC50 [2]: < 20 µM

Nc1ncccc1-c1nc2ccc(C3CCCCC3)nc2n1-c1ccc(NC(=O)[C@H]2CC[C@H](C(=O)O)CC2)nc1 [Compound I-119, (1r,4r)-4-((5-(2-(2-aminopyridin-3-yl)-5-cyclohexyl-3H-imidazo[4,5-b]pyridin-3-yl)pyridin-2-yl)carbamoyl)cyclohexane-1-carboxylic acid]
IC50 [1]: 0.5 to 2 µM | IC50 [2]: < 20 µM

Nc1ncccc1-c1nc2ccc(C3CCCC3)nc2n1-c1ccc(NC(=O)[C@H]2CC[C@H](C(=O)O)CC2)nc1 [Compound I-120, (1r,4r)-4-((5-(2-(2-aminopyridin-3-yl)-5-cyclopentyl-3H-imidazo[4,5-b]pyridin-3-yl)pyridin-2-yl)carbamoyl) cyclohexane-1-carboxylic acid]
IC50 [1]: 0.5 to 2 µM | IC50 [2]: < 20 µM

Cc1nc(N[C@H]2CC[C@H](C(=O)O)CC2)ccc1-n1c(-c2cccnc2N)nc2ccc(-c3ccccc3)nc21 [Compound I-121, (1r,4r)-4-((5-(2-(2-aminopyridin-3-yl)-5-phenyl-3H-imidazo[4,5-b]pyridin-3-yl)-6-methylpyridin-2-yl)amino)cyclohexane-1-carboxylic acid]
IC50 [1]: < 0.5 µM | IC50 [2]: < 20 µM

NC(=O)N1CCC(C(=O)Nc2ccc(-n3c(-c4cccnc4N)nc4ccc(-c5ccccc5)nc43)cn2)CC1 [Compound I-122, N^4-(5-(2-(2-aminopyridin-3-yl)-5-phenyl-31-imidazo[4,5-b]pyridin-3-yl)pyridin-2-yl)piperidine-1,4-dicarboxamide]
IC50 [1]: < 0.5 µM | IC50 [2]: < 20 µM

Nc1ncccc1-c1nc2ccc(OC(F)(F)F)cc2n1-c1ccc(NC(=O)[C@H]2CC[C@H](C(=O)O)CC2)nc1 [Compound I-123, (1r,4r)-4-((5-(2-(2-aminopyridin-3-yl)-6-(trifluoromethoxy)-1H-benzo[d]imidazol-1-yl)pyridin-2-yl)carbamoyl)cyclohexane-1-carboxylic acid]
IC50 [1]: ≥ 2 µM | IC50 [2]: < 20 µM

CC(C)Oc1ccc2nc(-c3cccnc3N)n(-c3ccc(NC(=O)[C@H]4CC[C@H](C(=O)O)CC4)nc3)c2c1 [Compound I-124, (1r,4r)-4-((5-(2-(2-aminopyridin-3-yl)-6-isopropoxy-1H-benzo[d]imidazol-1-yl)pyridin-2-yl)carbamoyl)cyclohexane-1-carboxylic acid]
IC50 [1]: ≥ 2 µM | IC50 [2]: < 20 µM

Cc1nc(NC(=O)C2CC3(CC(C(=O)O)C3)C2)ccc1-n1c(-c2cccnc2N)nc2ccc(-c3ccccc3)nc21 (centres unmarked) [Compound I-125, 6-((5-(2-(2-aminopyridin-3-yl)-5-phenyl-3H-imidazo[4,5-b]pyridin-3-yl)-6-methylpyridin-2-yl)carbamoyl)spiro[3.3]heptane-2-carboxylic acid]
IC50 [1]: < 0.5 µM | IC50 [2]: < 20 µM

Cc1nc(-n2c(-c3cccnc3N)nc3ccc(-c4ccccc4)nc32)ccc1NC(=O)C1CC2(CC(C(=O)O)C2)C1 (centres unmarked) [Compound I-126, 6-((6-(2-(2-aminopyridin-3-yl)-5-phenyl-3H-imidazo[4,5-b]pyridin-3-yl)-2-methylpyridin-3-yl)carbamoyl)spiro[3.3]heptane-2-carboxylic acid]
IC50 [1]: ≥ 2 µM | IC50 [2]: < 20 µM
